In paper PMC12040169 (PLOS Biology, 2025):

Assay: in vitro
Settings: human, hela cells, % viability

Compound | viability at 28.5 h, 10 µM [%] | viability at 28.5 h, 10 µM (bulk resorufin, single well) [%]
CCN(CC)CCNC(=O)c1ccc(C(=O)O)c(C)n1 [CBK304248] | 85.9 | –
Cc1nn(C)c(C)c1CNC(=O)N1CCN(CC(F)F)CC1 [CBK304249] | 102 | –
CN(CC1CCCOC1)C(=O)c1ncsc1Nc1ccccc1 (stereo not shown) [CBK304250] | 94.4 | –
Cc1ccccc1Nc1nc(CN2CCC3(CCCOC3)C2)cs1 (stereo not shown) [CBK304255] | 95 | –
O=C(NCC1(c2cccc(Br)c2)CCOCC1)C1CC(O)CN1 (stereo not shown) [CBK304257] | 95.9 | –
CCc1onc(C)c1C(=O)N1CCN(C2CCNC2)CC1 (stereo not shown) [CBK304258] | 96 | –
Cc1cnn(C)c1CN1CCNC(=O)C1c1ccccc1C(F)(F)F (stereo not shown) [CBK304260] | 86.2 | –
N#Cc1ccc(CN2CCCCC2c2[nH]ncc2C(N)=O)c(Cl)c1 (stereo not shown) [CBK304261] | 91.4 | –
CC1=CCCN(C(=O)C23CCOCC2CN(c2ncc(F)cn2)C3)C1 (stereo not shown) [CBK304263] | 87.3 | –
O=C(N1CCC=C(F)C1)C12CCOCC1CN(c1ncccn1)C2 (stereo not shown) [CBK304264] | 91.3 | –
CC(C)CCc1csc(C2CN3CCCC3CO2)n1 (stereo not shown) [CBK304266] | 89.9 | –
Cc1nnc2n1CCN(CC1CCCCO1)C2 (stereo not shown) [CBK304267] | 105 | –
CC(C)Oc1cc(Br)cc(C(=O)N2CCC(C(=O)O)C2)c1 (stereo not shown) [CBK304268C] | 92.6 | –
Cc1ccc2c(CC(=O)N3CCNCC3c3cnn(C)c3)coc2c1C (stereo not shown) [CBK304271C] | 87 | –
CCCCN=C(NCCCn1cccn1)N1CCCN(C(C)=O)CC1 [CBK304273I] | 107 | –
Cn1cc(C2CNCCN2C(=O)CCCc2csc3ccccc23)cn1 (stereo not shown) [CBK304274C] | 89.9 | –
CC(C)NC(=O)Cn1nnc(-c2cccc(C(F)(F)F)c2)n1 [CBK304275] | 95.2 | –
NC(=O)C1CCN(Cc2nc(-c3cccc(C(F)(F)F)c3)no2)CC1 [CBK304276] | 97.4 | –
Cn1ccc(C(=O)NC2CCN(c3ncccn3)CC2)cc1=O [CBK304280] | 85.2 | –
CC(CN(C)C(=O)c1cocn1)Oc1ccc(Cl)c(Cl)c1 (stereo not shown) [CBK304285] | 97.6 | –
CCCCN1C(=O)C(O)(c2c(C)nn(CCO)c2N)c2ccccc21 (stereo not shown) [CBK304286] | – | 116
C#CCN(C1CCc2ccccc21)S(=O)(=O)c1cc(C(N)=O)n(C)c1 (stereo not shown) [CBK304287] | 95.1 | –
COCCN(C(=O)c1cc2cc(C)ccc2s1)C1CCS(=O)(=O)C1 (stereo not shown) [CBK304289] | 87.3 | –

Compound | viability at 28.5 h, 10 µM [%] | viability at 28.5 h, 10 µM (bulk resorufin, single well) [%]
CC1CCc2c(C(=O)N3CCC4(C3)NC(=O)NC4=O)csc2C1 (stereo not shown) [CBK304290] | 76.8 | –
NS(=O)(=O)c1ccc2c(c1)N(Cc1nc(-c3ccco3)no1)CC2 [CBK304291] | 71.9 | –
Cn1nc2c(cc1=O)CN(C(=O)c1cnc(C(C)(C)C)nc1)CC2 [CBK304293] | 96.5 | –
O=C(NC1CCS(=O)(=O)C1)c1c[nH]c2ccccc2c1=O (stereo not shown) [CBK304295] | 88.7 | –
Cc1cc(NC(=O)C2CCN(C(=O)CNc3ccccc3)CC2)no1 [CBK304297C] | 85.9 | –
NC1CCN(C(=O)Cn2c3ccccc3c(=O)c3ccccc32)C1 (stereo not shown) [CBK304300C] | 94.3 | –
CNCC1CCCN(Cc2cn(-c3ccc(Br)cc3)nc2C)C1 (stereo not shown) [CBK304301C] | 99.7 | –
Cc1nn(C)c2ncc(S(=O)(=O)NCC(N)c3ccc(F)cc3F)cc12 (stereo not shown) [CBK304303C] | 99.1 | –
CCOCCn1c(N2CCCC(C)C2)nc2c1c(=O)[nH]c(=O)n2C (stereo not shown) [CBK304304] | 85.1 | –
COc1cc(CNC2CCCc3c2cnn3C)cc(OC)c1 (stereo not shown) [CBK304306C] | 82.4 | –
Cc1c(C(=O)N(C)Cc2cc3ccccc3o2)nnn1C1CCNCC1 [CBK304307C] | 96.4 | –
CCCN(C(=O)CCn1c(=O)oc2cc(Cl)ccc21)C1CCNC1 (stereo not shown) [CBK304311C] | 90.5 | –
Cc1c(C(=O)N(C)Cc2nc(C(F)(F)F)cs2)nnn1C1CCNCC1 [CBK304315C] | 106 | –
CC1(C)NC(=O)N(CC(O)Cn2c3ccccc3c3ccccc32)C1=O (stereo not shown) [CBK304318] | 86.8 | –
Cn1cc(C2CNCCN2C(=O)c2csc3ccccc23)cn1 (stereo not shown) [CBK304324C] | 108 | –
Cc1[nH]c(=O)[nH]c(=O)c1CC(=O)NCC1CCN(c2ccccc2F)C1 (stereo not shown) [CBK304325] | 99.7 | –
Cn1nc2c(cc1=O)CN(C(=O)c1ccoc1)CC2 [CBK304330] | 119 | –
Cc1nc(CC(=O)NCc2cccnc2N2CCOCC2)cs1 [CBK304331] | 98.7 | –
CC(=O)N1CCc2c(sc(NC(=O)c3ccc(N(C)C)cc3)c2C#N)C1 [CBK304333] | 94.7 | –
Cc1cc(C)cc(CNC(=O)N(CCCO)Cc2ccncc2)c1 [CBK304335] | 93.7 | –
CC(C)CNC(=O)C1CCN(C(=O)c2cccc(F)c2)CC1 [CBK304338] | 112 | –
Cc1nc(CC(=O)Nc2ccc(N3CCOCC3)cc2)cs1 [CBK304339] | 95.8 | –
Cc1c(CN(C)CC(=O)Nc2cccc(C(F)(F)F)c2)cnn1C [CBK304341] | 85 | –

Compound | viability at 28.5 h, 10 µM [%] | viability at 28.5 h, 10 µM (bulk resorufin, single well) [%]
Cn1nc2c(cc1=O)CN(C(=O)c1ccc3cc[nH]c3c1)CC2 [CBK304343] | 93.8 | –
Cn1c(C(=O)NC2CCOC(C)(C)C2)cc2ccccc21 (stereo not shown) [CBK304344] | 91.7 | –
CCS(=O)(=O)Nc1ccc(C(=O)N2CCN(c3ccccc3)CC2)cc1 [CBK304345] | 112 | –
Cc1cccn2cc(CNC(=O)C(C)(C)C)nc12 [CBK304348] | 83.9 | –
Cc1ccc(C(C)NC(=O)C2CCCN(S(C)(=O)=O)C2)c(C)c1 (stereo not shown) [CBK304349] | 94.1 | –
CSCCC(NC(=O)CCc1ccccc1)c1nnc2ccccn12 (stereo not shown) [CBK304350] | 95.4 | –
CC(C)Nc1ccc(C(=O)N2CCC(N3CCOCC3)CC2)cn1 [CBK304353] | 105 | –
Cc1cc(C(=O)N2CCC(c3nccn3C)CC2)ccc1F [CBK304355] | 89.7 | –
Cc1nn(CC(=O)N(C)Cc2cnccn2)c(=O)c2ccccc12 [CBK304356] | 97.6 | –
Cc1ccc(C)c(NC(=O)CCc2c(C)nn3cnnc3c2C)c1 [CBK304358] | 90 | –
COCC1(C(=O)N2CCN(c3ccccc3C#N)CC2)CCC1 [CBK304361] | 93 | –
CC(C)n1ccc2cc(C(=O)NC3CCOC(C)(C)C3)ccc21 (stereo not shown) [CBK304366] | 90.6 | –
COc1ccnc(N2CCN(C(=O)c3ccncc3Cl)CC2)n1 [CBK304367] | 102 | –
COCCN(CC1CC1)C(=O)NCc1cccc(Cl)c1 [CBK304368] | 93.4 | –
O=C1CN(C(=O)c2cc(-c3ccncc3)nc3ccccc23)CCN1 [CBK304370] | 104 | –
CCCOC(=O)Cn1cnc2sc(C)c(C)c2c1=O [CBK304371] | 88.9 | –
COc1ccc(C(=O)N2CCN(c3ncnc4onc(C)c34)CC2)cc1 [CBK304372] | 93.5 | –
OCC1COCCN(c2ncnc3c2CCC3)C1 (stereo not shown) [CBK304373] | 103 | –
Cc1ccc2cc(C(=O)N3CCCCC3CN3CCOCC3)[nH]c2c1 (stereo not shown) [CBK304374] | 90.4 | –
O=C(c1cc(S(=O)(=O)N2CCOCC2)ccc1Cl)N1CCCCC1 [CBK304377] | 94.1 | –
COc1ccnc(Cn2ncc(N3CCCC3)cc2=O)c1 [CBK304379] | 87.5 | –
